Source: ChEMBL document CHEMBL1201862, “PubChem BioAssay data set” (2004)
The source made the active and inactive calls.

Assays:
[1] = ADAM10 inhibitors, peptide cleavage, dose response, biochemical, QFRET (AID 743254);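 also: ADAM10 enzyme with the DM2 quenched FRET peptide as substrate; EDANS fluorescence gain as the protease cuts the substrate; inhibitor potency against ADAM10 proteolytic activity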
[2] = growth suppression of PTEN-null colon cells, dose response, cell-based, HCT116 PTEN knockout (AID 1047); type: functional;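 also: HCT116 colon tumor cells with PTEN knocked out; cells exposed to compound for 60 hours before readout; potency for loss of cell viability measured by luminescence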
[3] = growth suppression of beta-catenin-knockout colon cells, dose response, cell-based, HCT116, human colon tumor (AID 1045); type: functional;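 also: HCT116 colon tumor cells with beta catenin knocked out; cells exposed to compound for 60 hours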
Melanocortin receptor 4 = Melanocortin receptor 4 (Homo sapiens, UniProt P32245); type: functional, cell-based;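 also: Cell-based assay with luminescence read-out, confirmatory dose-response testing for agonist activity of biased ligands at MC4R; human U2OS cells with tagged receptor and beta-arrestin; potency of agonists that increase receptor coupling to beta-arrestin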
[4] = inhibitors of HIV Env-driven cell fusion, dose response, cherry-pick (AID 652057); type: functional, cell-based
[5] = ZM109 Env clade C HIV-1 fusion inhibitors, dose response, HeLa effector, CEM target cells, luciferase, cherry-pick (AID 652058); type: functional, cell-based
[6] = off-target signal loss in HeLa-CEM21 co-culture – HeLa F-luc CTL cells, cherry-picked, counter-screen for HIV-1 Env fusion inhibitor project, dose response (AID 652040); type: functional, cell-based;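 also: potency for signal decrease marking cytotoxic or nonspecific inhibition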
[7] = inhibitors of clade B AD8 Env fusion, dose response, cell-based, cherry-pick (AID 652062); type: functional;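 also: luciferase signal from cell-cell fusion driven by HIV-1 clade B AD8 Env; potency is for inhibitors of fusion seen as a drop in luminescence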
[8] = molecular target: T1, Calpain-2 catalytic subunit (Sus scrofa, UniProt P43367); assay: pig calpain II inhibitor potency, dose response, biochemical, fluorogenic peptide substrate (AID 1420); type: functional
T1 sequence (P43367 whole entry): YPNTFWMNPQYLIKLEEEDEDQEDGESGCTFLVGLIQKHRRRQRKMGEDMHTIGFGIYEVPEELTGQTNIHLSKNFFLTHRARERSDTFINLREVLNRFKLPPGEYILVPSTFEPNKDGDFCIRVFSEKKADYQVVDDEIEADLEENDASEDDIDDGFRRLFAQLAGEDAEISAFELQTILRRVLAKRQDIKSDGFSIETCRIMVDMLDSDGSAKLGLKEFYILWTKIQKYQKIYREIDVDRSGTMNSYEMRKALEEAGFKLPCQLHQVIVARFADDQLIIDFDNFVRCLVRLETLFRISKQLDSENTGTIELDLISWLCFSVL

[9] = molecular target: T2, Low molecular weight phosphotyrosine protein phosphatase (Homo sapiens, UniProt P24666); type: functional; conditions: read-out: IC50_Mean
T2 sequence (P24666 whole entry): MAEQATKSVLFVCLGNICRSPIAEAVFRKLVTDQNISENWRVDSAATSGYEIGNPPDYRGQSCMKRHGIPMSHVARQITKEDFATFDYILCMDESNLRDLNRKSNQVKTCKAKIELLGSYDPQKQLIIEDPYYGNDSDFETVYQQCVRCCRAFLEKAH

[10] = molecular target: T2, Low molecular weight phosphotyrosine protein phosphatase; type: functional; conditions: read-out: IC50_Mean; remark: listed apart in the source
[11] = molecular target: T3, DNA repair and recombination protein RAD54-like (Homo sapiens, UniProt Q92698); assay: inhibitors of human RAD54 branch migration, confirmation, biochemical, fluorescence, cherry-picked samples, dose series (AID 651657); type: functional
T3 sequence (Q92698 whole entry): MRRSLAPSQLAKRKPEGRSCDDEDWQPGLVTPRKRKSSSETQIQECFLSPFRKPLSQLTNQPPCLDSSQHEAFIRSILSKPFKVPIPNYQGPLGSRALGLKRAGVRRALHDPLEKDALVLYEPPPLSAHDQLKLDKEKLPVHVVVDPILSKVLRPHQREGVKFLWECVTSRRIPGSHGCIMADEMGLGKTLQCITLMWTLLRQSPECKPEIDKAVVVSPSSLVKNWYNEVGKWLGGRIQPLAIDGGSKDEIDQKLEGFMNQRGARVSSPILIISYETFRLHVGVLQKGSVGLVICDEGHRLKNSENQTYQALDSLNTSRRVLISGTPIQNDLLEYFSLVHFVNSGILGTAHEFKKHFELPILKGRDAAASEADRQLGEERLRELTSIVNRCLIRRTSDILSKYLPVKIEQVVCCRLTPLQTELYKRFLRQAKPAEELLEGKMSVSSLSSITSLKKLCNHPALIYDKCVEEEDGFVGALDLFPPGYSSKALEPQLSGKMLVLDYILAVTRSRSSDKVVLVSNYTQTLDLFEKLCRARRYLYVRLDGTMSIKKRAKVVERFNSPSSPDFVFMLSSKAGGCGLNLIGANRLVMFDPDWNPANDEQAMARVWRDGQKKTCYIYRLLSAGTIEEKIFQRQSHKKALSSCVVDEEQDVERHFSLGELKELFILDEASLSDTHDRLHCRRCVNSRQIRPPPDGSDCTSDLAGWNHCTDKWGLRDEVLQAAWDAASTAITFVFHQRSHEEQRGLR

Protein skinhead-1 = molecular target: T4, Protein skinhead-1 (Caenorhabditis elegans, UniProt P34707); type: functional
T4 sequence (P34707 whole entry): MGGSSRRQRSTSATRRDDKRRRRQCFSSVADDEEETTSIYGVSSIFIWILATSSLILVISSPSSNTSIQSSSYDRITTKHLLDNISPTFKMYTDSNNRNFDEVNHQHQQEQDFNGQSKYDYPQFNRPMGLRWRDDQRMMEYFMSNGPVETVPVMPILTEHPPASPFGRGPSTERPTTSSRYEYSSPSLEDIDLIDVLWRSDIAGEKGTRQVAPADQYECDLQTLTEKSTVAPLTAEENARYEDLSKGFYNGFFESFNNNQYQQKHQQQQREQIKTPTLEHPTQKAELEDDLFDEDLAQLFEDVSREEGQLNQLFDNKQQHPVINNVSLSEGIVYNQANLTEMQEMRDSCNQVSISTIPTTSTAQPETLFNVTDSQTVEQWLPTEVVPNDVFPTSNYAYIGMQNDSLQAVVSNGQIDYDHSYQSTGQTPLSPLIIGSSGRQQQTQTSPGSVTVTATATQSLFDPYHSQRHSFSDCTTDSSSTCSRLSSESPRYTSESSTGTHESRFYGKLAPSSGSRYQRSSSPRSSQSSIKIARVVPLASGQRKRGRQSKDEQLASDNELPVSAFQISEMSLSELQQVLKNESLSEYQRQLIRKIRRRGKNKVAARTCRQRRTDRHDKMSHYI

[12] = A549 cell cytotoxicity, dose response, cytotoxicity control, plate reader, cherry-pick, antagonist series (AID 743412); type: functional, cell-based
[13] = LGR2 antagonists, dose response, cell-based, HEK293, CRE-luciferase reporter, cherry pick, set 2 (AID 743343); type: functional;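 also: transfected cells were stimulated with diluted bursicon conditioned medium after compound addition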
[14] = MC4R antagonists, dose response, counter-screen for LGR2 antagonist project, cell-based, plate reader, cherry pick (AID 743444); type: functional;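 also: transfected HEK 293 cells stimulated with alpha-MSH peptide; potency of inhibitors of the alpha-MSH evoked signal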
[15] = HEK293 cell cytotoxicity, dose response, cytotoxicity control, plate reader, cherry-picked samples (AID 743446); type: functional, cell-based
[16] = molecular target: Disintegrin and metalloproteinase domain-containing protein 17 (Homo sapiens, UniProt P78536); assay: ADAM17 protease inhibitors, dose response, counter-screen for ADAM10 exosite inhibitor project, biochemical, quenched FRET substrate (AID 743253)
[17] = Luminescence Cell-Based Dose Retest to Confirm Inhibitors of Cancer Stem Cells. [Related pubchem assays (depositor defined):AID2717, AID2721]; type: functional; conditions: Homo sapiens
Protein Wnt-3a = Protein Wnt-3a (Mus musculus, UniProt P27467); assay: Wnt3a-driven reporter signaling inhibition, dose response, selectivity assay for Gli-SUFU antagonist project, Wnt-LIGHT cells, luminescence (AID 651570); type: functional; conditions: read-out: IC50_Mean;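 also: Wnt-LIGHT reporter cells stimulated with conditioned medium from Wnt3a-producing cells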
INS1 = assay: beta cell apoptosis inhibitors, cytokine rescue, dose response, luminescence, retest (AID 449756); type: functional, cell-based; conditions: Rattus norvegicus;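 also: cell death triggered by IL-1 beta plus TNF-alpha plus IFN-gamma mixture; protective hits raise ATP signal compared with cytokine alone wells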
[18] = Shn3 3'UTR reporter inhibitors, dose response, cell-based, Clone20 osteoblasts, firefly luciferase, cherry-picked (AID 624132); type: functional;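 also: firefly luciferase luminescence from reporter carrying the Shn3 3'UTR in osteoblasts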
[19] = HepG2 cell cytotoxicity, dose response, cytotoxicity control for Shn3 inhibitor project, CellTiter-Glo, cherry-picked (AID 624134); type: functional, cell-based
[20] = molecular target: Eukaryotic translation initiation factor 4E (Mus musculus, UniProt P63073); assay: eIF4E–eIF4G protein interaction inhibitors, dose response, biochemical, TR-FRET (AID 855); type: functional;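 also: potency for disrupting eIF4E binding to eIF4GI seen as loss of FRET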
[21] = intracellular Trypanosoma cruzi inhibitors in host cells – cell-based, plate reader, cherry-pick samples, set 3, dose response (AID 651818); type: functional;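 also: compounds incubated with infected cells for about four days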
[22] = P. falciparum Dd2 growth inhibitors, dose response, SYBR Green, dry powder samples, set 9 (AID 1159568); type: functional, cell-based
[23] = Fluorescence-based cell-based high throughput dose response assay for inhibitors of the interaction of nucleotide-binding oligomerization domain containing 2 (NOD2) and the receptor-interacting serine-threonine kinase 2 (RIPK2).; type: functional; conditions: Homo sapiens
[24] = miR-122 activators in hepatoma reporter cells, dose response, cell-based, Huh7 psiCHECK-miR122, Renilla luciferase, cherry-picked (AID 651956); type: functional;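 also: huh7 hepatoma cells stably carrying a psiCHECK-2 miR-122 sensor plasmid; renilla luciferase signal reporting endogenous miR-122 activity after 48 h compound exposure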

Disintegrin and metalloproteinase domain-containing protein 17, sequence (P78536 whole entry, the tested form may be a part): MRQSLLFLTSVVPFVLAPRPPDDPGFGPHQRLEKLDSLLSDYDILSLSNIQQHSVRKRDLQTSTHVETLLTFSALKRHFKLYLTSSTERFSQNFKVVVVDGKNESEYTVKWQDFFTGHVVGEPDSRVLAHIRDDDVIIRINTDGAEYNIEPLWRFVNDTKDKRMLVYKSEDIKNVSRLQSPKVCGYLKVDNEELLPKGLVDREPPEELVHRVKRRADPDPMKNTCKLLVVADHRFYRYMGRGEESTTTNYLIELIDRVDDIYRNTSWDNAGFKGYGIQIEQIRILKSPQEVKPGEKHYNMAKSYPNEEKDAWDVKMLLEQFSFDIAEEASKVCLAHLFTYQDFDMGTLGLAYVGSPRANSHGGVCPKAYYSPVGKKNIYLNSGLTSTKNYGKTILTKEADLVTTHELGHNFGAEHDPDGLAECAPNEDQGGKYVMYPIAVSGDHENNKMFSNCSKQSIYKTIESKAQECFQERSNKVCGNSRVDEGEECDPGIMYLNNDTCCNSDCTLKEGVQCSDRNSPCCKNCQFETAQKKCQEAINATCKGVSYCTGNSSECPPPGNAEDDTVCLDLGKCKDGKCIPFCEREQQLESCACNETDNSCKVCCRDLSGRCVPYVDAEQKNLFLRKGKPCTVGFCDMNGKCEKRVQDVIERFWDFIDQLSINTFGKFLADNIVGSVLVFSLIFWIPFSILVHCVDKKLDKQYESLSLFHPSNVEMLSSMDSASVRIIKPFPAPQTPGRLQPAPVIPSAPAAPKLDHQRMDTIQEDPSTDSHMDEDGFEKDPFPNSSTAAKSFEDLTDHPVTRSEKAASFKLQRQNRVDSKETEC
Protein Wnt-3a, sequence (P27467 whole entry): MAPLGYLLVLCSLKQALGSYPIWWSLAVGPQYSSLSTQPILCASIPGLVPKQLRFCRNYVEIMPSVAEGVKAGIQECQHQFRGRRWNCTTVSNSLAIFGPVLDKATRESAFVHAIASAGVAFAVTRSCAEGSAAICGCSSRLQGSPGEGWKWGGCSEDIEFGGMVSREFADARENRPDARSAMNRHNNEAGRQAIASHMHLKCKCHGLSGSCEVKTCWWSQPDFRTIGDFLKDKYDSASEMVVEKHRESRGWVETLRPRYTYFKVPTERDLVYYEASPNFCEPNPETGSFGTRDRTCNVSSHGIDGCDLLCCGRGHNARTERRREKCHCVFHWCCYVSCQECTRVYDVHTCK
Melanocortin receptor 4, sequence (P32245 whole entry, the tested form may be a part): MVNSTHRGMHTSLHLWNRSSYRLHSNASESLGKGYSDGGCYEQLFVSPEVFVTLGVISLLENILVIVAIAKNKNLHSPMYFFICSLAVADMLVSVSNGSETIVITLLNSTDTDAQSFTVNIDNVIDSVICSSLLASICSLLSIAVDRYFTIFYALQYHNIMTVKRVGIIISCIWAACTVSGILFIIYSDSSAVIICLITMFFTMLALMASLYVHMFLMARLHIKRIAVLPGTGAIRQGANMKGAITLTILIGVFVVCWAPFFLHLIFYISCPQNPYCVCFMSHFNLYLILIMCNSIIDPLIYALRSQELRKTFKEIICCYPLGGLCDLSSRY
Eukaryotic translation initiation factor 4E, sequence (P63073 whole entry): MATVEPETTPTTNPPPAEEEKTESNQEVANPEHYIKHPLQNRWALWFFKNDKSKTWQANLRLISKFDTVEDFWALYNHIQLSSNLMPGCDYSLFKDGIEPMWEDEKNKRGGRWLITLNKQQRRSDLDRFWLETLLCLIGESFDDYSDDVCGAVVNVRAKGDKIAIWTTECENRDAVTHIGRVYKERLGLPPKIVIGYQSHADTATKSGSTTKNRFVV

SMILES: CC(C)(C)c1ccc(-c2cc(-c3ccccc3O)[nH]n2)cc1
- IC50 [1]: 14.9 µM (inactive)

SMILES: Cc1ccc(-c2nnc(-c3ccc(NC(=O)Cc4cccs4)cc3)o2)cc1
- EC50 [2]: 5.97 µM (active)
- EC50 [3]: 4.87 µM (active)
- EC50 (Melanocortin receptor 4): > 89.2 µM (inactive)

SMILES: Cc1cc(C)c(S(=O)(=O)N2CCN=C2c2ccccc2)cc1C
- AC50 [4]: 5.08 µM (active)
- AC50 [5]: 7.73 µM (active)
- AC50 [6]: 10.1 µM (active)
- AC50 [7]: 7.94 µM (active)

SMILES: COc1ccc(/N=c2\[nH]c(=O)c3cc([N+](=O)[O-])ccc3s2)cc1
- IC50 [8]: > 50 µM (not active)
- IC50 [9]: 15.5 µM (active)
- IC50 [10]: 13.4 µM (active)

SMILES: c1ccc(-c2nc(NCCCN3CCOCC3)c3ccccc3n2)cc1
- IC50 [9]: 37.2 µM (inactive)
- IC50 [10]: 17 µM (active)
- AC50 [11]: 32.4 µM (active)

SMILES: CCc1ccc2oc(-c3ccc(N)cc3)nc2c1
- IC50 (Protein skinhead-1): 46.2 µM (active)
- AC50 [12]: > 52 µM (inactive)
- AC50 [13]: 7.42 µM (active)
- AC50 [14]: 4.19 µM (active)
- AC50 [15]: > 52 µM (inactive)

SMILES: C=C(C)COc1ccc(-c2[nH]nc(C)c2Oc2ccccc2OC)c(O)c1
- IC50 [1]: 8.72 µM (active)

SMILES: C=C(C)COc1ccc(-c2n[nH]c(C)c2Oc2ccccc2OC)c(O)c1
- IC50 [16]: > 69.5 µM (inactive)

SMILES: O=S(=O)(NCc1ccncc1)c1ccc(S(=O)(=O)NCC2CCCO2)cc1 (stereo not drawn)
- AC50 [17]: 0.973 µM (active)
- IC50 (Protein Wnt-3a): 7.09 µM (active)

SMILES: COc1ccc(NS(=O)(=O)c2cccc(NC(=O)c3ccc(S(=O)(=O)N4CCCCCC4)cc3)c2)cc1
- AC50 (INS1): 3.12 µM (active)
- AC50 [18]: 0.829 µM (active)
- AC50 [19]: 38.8 µM (active)
- IC50 (Protein Wnt-3a): 1.76 µM (active)

SMILES: CN1CCN(c2nc(-c3ccncc3)nc3ccccc23)CC1
- AC50 [11]: 8.41 µM (active)

SMILES: CC[C@@]12C(=O)N(c3cccc(F)c3)C(=O)N1[C@H](c1ccc(Cl)cc1)[C@@H]1C(=O)N(C3CCCCC3)C(=O)[C@@H]12
- AC50 [4]: < 0.26 µM (active)
- AC50 [5]: < 0.26 µM (active)
- AC50 [6]: 0.416 µM (active)
- AC50 [7]: 0.329 µM (active)

SMILES: C[C@@]12C(=O)N(c3cccc(Cl)c3)C(=O)N1[C@H](c1ccc(Cl)cc1)[C@@H]1C(=O)N(C3CCCCC3)C(=O)[C@@H]12
- AC50 [4]: 1.21 µM (active)
- AC50 [5]: 1.31 µM (active)
- AC50 [6]: 2.26 µM (active)
- AC50 [7]: 11.6 µM (active)

SMILES: COc1ccc(-c2cnnc(N/N=C/c3ccc(-c4ccc([N+](=O)[O-])cc4)o3)n2)cc1
- IC50 [20]: 50 µM (inactive)
- IC50 [9]: > 80 µM (inactive)
- IC50 [10]: 6.62 µM (active)

SMILES: C[C@H](CO)N1C[C@H](C)[C@H](CN(C)C(=O)Nc2ccc(C(F)(F)F)cc2)Oc2c(NC(=O)c3ccc(-c4nccs4)cc3)cccc2C1=O
- AC50 [21]: 4.22 µM (active)
- AC50 [22]: 5 µM (active)

SMILES: CCOC(=O)[C@]12Cc3cc(OC)ccc3[C@H]1N(C1CCCCC1)C(=O)c1cc(OC)ccc12
- IC50 [23]: 4.81 µM (active)

SMILES: C[C@H](CO)N1C[C@H](C)[C@H](CN(C)C(=O)NC2CCCCC2)Oc2ncc(-c3cccc(C(F)(F)F)c3)cc2C1=O
- AC50 [24]: 37.8 µM (active)

SMILES: CN(C)c1ccc(-c2nc3cc(N)ccc3o2)cc1
- AC50 [13]: 2.28 µM (active)
- AC50 [14]: 3.58 µM (active)
- AC50 [15]: > 52 µM (inactive)

SMILES: N#Cc1cccc(-c2ccc([C@@H]3[C@@H]4CN(C(=O)c5ccccn5)C[C@H]3N4)cc2)c1
- AC50 [12]: 15 µM (active)
- AC50 [13]: 11.1 µM (active)
- AC50 [14]: 13.2 µM (active)
- AC50 [15]: > 52 µM (inactive)

SMILES: O=C(N/N=C/c1cn(-c2cccs2)nc1-c1ccccc1)c1ccccc1Cl
- IC50 [1]: > 69.5 µM (inactive)
- IC50 [16]: > 69.5 µM (inactive)

SMILES: CC(C)[C@H]1COCn2nncc2CCCC(=O)N1
- AC50 [22]: > 39 µM (inactive)
